Assay results taken from US11318136B2, “Identification of granins as the pathogenic factor of alzheimer's disease and compositions and methods for inhibiting granin aggregation and treating alzheimer's disease” (priority 2018, dated 2022).
One block for each compound: values may come before it.

Assays:
chromogranin A (CGA) = biological target: T1, chromogranin A (CGA) (Bos taurus, UniProt P05059); assay: Metal-induced chromogranin A aggregation (turbidity); assay type: biochemical, bovine; settings: 1 μM compound, pH 7.4; for Fe2+-induced chromogranin A aggregation / Cu2+-induced chromogranin A aggregation: chromogranin A 0.005 mg/ml (0.1 μM); for Zn2+-induced chromogranin A aggregation: chromogranin A 0.005 mg/ml
T1 construct: from tissue; host or cells: secretory granules of bovine adrenal medulla
T1 sequence (P05059 19-449): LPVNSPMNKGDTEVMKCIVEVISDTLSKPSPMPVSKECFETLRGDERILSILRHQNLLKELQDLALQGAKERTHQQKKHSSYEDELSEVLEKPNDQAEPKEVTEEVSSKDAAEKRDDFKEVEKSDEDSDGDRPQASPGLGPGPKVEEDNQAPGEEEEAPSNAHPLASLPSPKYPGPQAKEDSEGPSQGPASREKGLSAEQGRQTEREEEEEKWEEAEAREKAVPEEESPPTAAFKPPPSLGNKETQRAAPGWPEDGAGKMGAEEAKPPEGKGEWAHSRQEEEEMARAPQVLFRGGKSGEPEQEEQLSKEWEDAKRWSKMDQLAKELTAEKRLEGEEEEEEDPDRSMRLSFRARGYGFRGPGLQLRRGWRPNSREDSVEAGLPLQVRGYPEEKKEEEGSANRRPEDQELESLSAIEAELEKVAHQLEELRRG
Text: (§1) Materials: The major granin proteins, chromogranin A (CGA), chromogranin B (CGB), and secretogranin II (SgII) were purified from secretory granules of bovine adrenal medulla as described (Park et al., 2002; Yoo, 1995; Yoo and Albanesi, 1990). Chelex 100 was from Bio-Rad (U.S.A), and other chemicals were of highest purity that is commercially available. Purified native chromogranin B (c), secretogranin II (d), and chromogranin A (b) are illustrated in FIG. 4. The flavonoids, stilbenoids, and the other test compounds used in the present experiments were obtained from MedChem Express (U.S.A.), Sigma-Aldrich (U.S.A.), and Santa-Cruz Biotech. (U.S.A.), and the purity of all the compounds tested was 98% or higher.
(§2) Aggregation Experiments: Prior to aggregation studies, it is necessary to remove metal ions that had interacted with granins during purification process from granins through extensive treatments with chelating agents such as Chelex 100 (Bio-Rad, U.S.A) to dissociate the granin aggregates. For metal-induced aggregation studies, Chelex 100-treated CGA, CGB, or SgII in 2 mM MOPS, pH 7.4, was titrated with concentrated metal ions such as CuCl2, FeCl2, and ZnCl2. Aggregation was monitored by measuring the turbidity change with a Beckman DU640 uv/vis spectrophotometer. All the measurements were done at 24° C.
(§3) Materials: The major granin proteins, chromogranin A (CGA), chromogranin B (CGB), and secretogranin II (SgII) were purified from secretory granules of bovine adrenal medulla as described (Park et al., 2002; Yoo, 1995; Yoo and Albanesi, 1990). Chelex 100 was from Bio-Rad, and other chemicals were of highest purity that is commercially available.
as §2, with “100” for “100 (Bio-Rad, U.S.A)”, “Beckman” for “Beckman DU640 uv/vis”

chromogranin B (CGB) = biological target: T2, chromogranin B (CGB) (Bos taurus, UniProt P23389); assay: Metal-induced chromogranin B aggregation (turbidity); assay type: biochemical, bovine; settings: 1 μM compound, pH 7.4; for Cu2+-induced chromogranin B aggregation / Fe2+-induced chromogranin B aggregation: chromogranin B 0.005 mg/ml (0.06 μM)
T2 construct: from tissue; host or cells: secretory granules of bovine adrenal medulla
T2 sequence (P23389 21-646): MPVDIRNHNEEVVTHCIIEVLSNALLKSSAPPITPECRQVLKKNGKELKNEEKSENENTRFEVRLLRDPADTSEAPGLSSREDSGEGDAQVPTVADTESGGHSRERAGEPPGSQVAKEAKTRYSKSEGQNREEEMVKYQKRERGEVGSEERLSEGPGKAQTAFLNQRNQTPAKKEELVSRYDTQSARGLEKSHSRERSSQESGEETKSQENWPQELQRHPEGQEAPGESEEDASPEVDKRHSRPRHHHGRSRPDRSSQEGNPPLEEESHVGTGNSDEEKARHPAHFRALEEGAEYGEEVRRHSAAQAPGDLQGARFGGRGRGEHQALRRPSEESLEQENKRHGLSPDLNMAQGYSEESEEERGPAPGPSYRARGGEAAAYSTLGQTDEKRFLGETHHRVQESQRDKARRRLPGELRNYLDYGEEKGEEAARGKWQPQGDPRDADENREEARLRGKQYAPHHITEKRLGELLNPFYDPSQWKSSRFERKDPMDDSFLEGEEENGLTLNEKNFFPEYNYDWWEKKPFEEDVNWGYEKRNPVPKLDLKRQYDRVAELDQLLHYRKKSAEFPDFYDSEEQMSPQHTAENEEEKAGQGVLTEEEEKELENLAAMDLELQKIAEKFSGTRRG
Text: as §1, §2, §3
as §2, with “100” for “100 (Bio-Rad, U.S.A)”, “Beckman” for “Beckman DU640 uv/vis”

secretogranin II (SgII) = biological target: T3, secretogranin II (SgII) (Bos taurus, UniProt P20616); assay: Metal-induced secretogranin II aggregation (turbidity); assay type: biochemical, bovine; settings: 1 μM compound, pH 7.4
T3 construct: from tissue; host or cells: secretory granules of bovine adrenal medulla
T3 sequence (P20616 31-613): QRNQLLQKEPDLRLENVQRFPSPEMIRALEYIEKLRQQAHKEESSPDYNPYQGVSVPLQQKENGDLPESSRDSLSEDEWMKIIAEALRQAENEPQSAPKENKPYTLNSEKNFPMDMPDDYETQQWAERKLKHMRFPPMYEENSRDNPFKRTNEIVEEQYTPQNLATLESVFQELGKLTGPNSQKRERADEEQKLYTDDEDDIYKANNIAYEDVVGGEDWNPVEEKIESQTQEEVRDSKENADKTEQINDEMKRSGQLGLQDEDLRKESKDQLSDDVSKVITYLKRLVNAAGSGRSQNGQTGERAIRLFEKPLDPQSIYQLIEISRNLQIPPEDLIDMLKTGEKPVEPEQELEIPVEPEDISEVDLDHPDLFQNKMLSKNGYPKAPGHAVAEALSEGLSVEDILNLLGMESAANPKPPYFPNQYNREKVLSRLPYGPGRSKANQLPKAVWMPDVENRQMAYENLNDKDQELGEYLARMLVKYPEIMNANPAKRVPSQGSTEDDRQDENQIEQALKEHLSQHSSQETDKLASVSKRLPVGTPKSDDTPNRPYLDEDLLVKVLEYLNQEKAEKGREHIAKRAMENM
Text: as §1, §2, §3
as §2, with “100” for “100 (Bio-Rad, U.S.A)”, “Beckman” for “Beckman DU640 uv/vis”

chromogranin B = biological target: T4, chromogranin B (Bos taurus, UniProt P23389); assay: Dynamic light scattering, hydrodynamic state of chromogranin B; assay type: biochemical, bovine; settings: chromogranin B 0.5 mg/ml (6 μM); 0.2 mM compound; 0.2 mM Fe2+; pH 7.4
T4 construct: from tissue; host or cells: secretory granules of bovine adrenal medulla
T4 sequence (P23389 21-646): T2 sequence (P23389 21-646)
Procedure: Molecular dynamic light scattering: To determine whether granins are in a monomer-to-oligomer state or in high molecular weight aggregate states in different solution conditions, dynamic light scattering experiments of granins were carried out with a DynaPro NanoStar of Wyatt Technology (Santa Barbara, Calif.) at 24° C., and the results were analyzed by a program (Dynamics 7.5.0) provided by the company.

PC12 cells = assay: MTT cell toxicity assay, granin plus Cu2+ toxicity; assay type: cell-based; settings: 0.1 μM chromogranin A, 0.06 μM chromogranin B, 0.07 μM secretogranin II, 20 μM Cu2+, 1 μM compound
Text: MTT cell toxicity assay: Cell toxicity assays were done using MTT cell proliferation assay kits from Invitrogen (U.S.A.) and 50,000 PC12 cells/well as described (Cheruvara et al., 2015; Shearman et al., 1994). The assays are designed to detect the level of MTT dye reduction by cells, and the resulting color changes at 570 nm are used as an indicator of cell viability (health). The healthier the cells the higher the color changes.

[1] = secretogranin II 0.005 mg/ml (0.07 μM)

Compound: COc1cc(OC)c2c(=O)cc(-c3ccccc3)oc2c1 [5,7-dimethoxyflavone]
Fe2+-induced chromogranin A aggregation (chromogranin A (CGA)): completely suppressed
Zn2+-induced chromogranin A aggregation (chromogranin A (CGA)): mostly suppressed

Compound: Nc1ncnc2c1ncn2[C@@H]1O[C@H](CO)C[C@H]1O [cordycepin]
Cu2+-induced chromogranin A aggregation (chromogranin A (CGA)): mostly suppressed
Fe2+-induced secretogranin II aggregation (secretogranin II (SgII); [1]): significantly suppressed

Compound: O=c1c(O)c(-c2cc(O)c(O)c(O)c2)oc2cc(O)cc(O)c12 [myricetin]
Fe2+-induced chromogranin A aggregation (chromogranin A (CGA)): completely suppressed
Fe2+-induced chromogranin B aggregation (chromogranin B (CGB)): completely suppressed

Compound: O=c1c(O)c(-c2ccc(O)c(O)c2)oc2cc(O)cc(O)c12 [quercetin]
Cu2+-induced chromogranin B aggregation (chromogranin B (CGB)): completely suppressed
Fe2+-induced secretogranin II aggregation (secretogranin II (SgII); [1]): completely suppressed

Compound: COc1ccc(-c2cc(=O)c3c(OC)c(OC)c(OC)c(OC)c3o2)cc1 [tangeretin]
Cu2+-induced chromogranin A aggregation (chromogranin A (CGA)): mostly suppressed
Fe2+-induced chromogranin B aggregation (chromogranin B (CGB)): completely suppressed

Compound: COc1cc2ncnc(Nc3cccc(Cl)c3)c2cc1OC [tyrphostin AG1478]
Fe2+-induced chromogranin A aggregation (chromogranin A (CGA)): significantly suppressed
Fe2+-induced secretogranin II aggregation (secretogranin II (SgII); [1]): significantly suppressed

Compound: epigallocatechin 3-gallate [EGCG]
Cu2+-induced secretogranin II aggregation (secretogranin II (SgII); [1]): mostly suppressed
Fe2+-induced secretogranin II aggregation (secretogranin II (SgII); [1]): completely suppressed

More lines, main results first:

Cu2+-induced chromogranin A aggregation (chromogranin A (CGA)): completely suppressed
Zn2+-induced chromogranin B aggregation (chromogranin B (CGB); chromogranin B 0.005 mg/ml): mostly suppressed
Compound: O=c1cc(-c2ccc(O)cc2)oc2cc(O)cc(O)c12 [apigenin]

Cu2+-induced chromogranin B aggregation (chromogranin B (CGB)): mostly suppressed
Fe2+-induced secretogranin II aggregation (secretogranin II (SgII); secretogranin II 0.01 mg/ml (0.14 μM)): completely suppressed
chromogranin B in large aggregate state (chromogranin B): 5.3%
chromogranin B remaining in low molecular weight oligomer state (chromogranin B): 94.7%
Compound: O=c1cc(-c2ccccc2)oc2cc(O)c(O)c(O)c12 [baicalein]

Fe2+-induced chromogranin A aggregation (chromogranin A (CGA)): completely suppressed
Fe2+-induced secretogranin II aggregation (secretogranin II (SgII); [1]): completely suppressed
Compound: O=c1c(O)c(-c2ccc(O)c(O)c2)oc2cc(O)ccc12 [fisetin]

Fe2+-induced chromogranin A aggregation (chromogranin A (CGA)): completely suppressed
Cu2+-induced secretogranin II aggregation (secretogranin II (SgII); [1]): mostly suppressed
Compound: O=c1c(O)c(-c2ccc(O)cc2)oc2cc(O)cc(O)c12 [kaempferol]

Fe2+-induced chromogranin B aggregation (chromogranin B (CGB)): mostly inhibited
Fe2+-induced secretogranin II aggregation (secretogranin II (SgII); [1]): mostly inhibited
Compound: O=c1cc(-c2ccc(O)c(O)c2)oc2cc(O)cc(O)c12 [luteolin]
granin-induced toxicity (cell toxicity, MTT) (PC12 cells): virtually stopped

Fe2+-induced chromogranin A aggregation (chromogranin A (CGA)): completely suppressed
Zn2+-induced chromogranin A aggregation (chromogranin A (CGA)): mostly suppressed
Compound: O=c1c(O)c(-c2ccc(O)cc2O)oc2cc(O)cc(O)c12 [morin]

Fe2+-induced chromogranin B aggregation (chromogranin B (CGB)): mostly suppressed
Zn2+-induced secretogranin II aggregation (secretogranin II (SgII); [1]): significantly suppressed
Compound: Oc1ccc(C=Cc2cc(O)cc(O)c2)cc1 [resveratrol]
